Reference: ChEMBL document CHEMBL1255553, “Unusual antimalarial meroditerpenes from tropical red macroalgae” (Bioorg Med Chem Lett, 2010)
Values after ≈ are worked out from the molar mass of the structure shown.

Tested on: Mycobacterium tuberculosis
Test: Antimicrobial activity against vancomycin-resistant Mycobacterium tuberculosis
Assay type: functional, organism-based

| SMILES | MIC | IC50 |
| --- | --- | --- |
| CC1=C2Cc3cc(ccc3O)C(=O)O[C@H](C(C)(C)Br)CC[C@](C)(O)[C@H](Br)CC[C@]2(C)[C@@H](Br)CC1 | 11 µM (≈ 7.32 µg/mL) |  |
| CC1=C2Cc3cc(ccc3O)C(=O)O[C@H](C(C)(C)O)CC[C@]3(C)O[C@H]3C/C=C(\C)C2CC1 (some centres undefined) | > 100 µM |  |
| Cc1cc(O)cc(CC[C@](C)(O)CCC[C@H](C)CCC[C@H](C)CCCC(C)C)c1O |  | > 100 µM |
| CC(C)=CCC[C@@](C)(O)[C@@H]1CC/C(C)=C/CC/C(C)=C/Cc2cc(ccc2O)C(=O)O1 [CALLOPHYCOLIDE A] | 12 µM (≈ 5.12 µg/mL) |  |
